# Assay results taken from ChEMBL document CHEMBL4304811, “Development of a Water-Soluble Indolylmaleimide Derivative IM-93 Showing Dual Inhibition of Ferroptosis and NETosis” (ACS Med Chem Lett, 2019).
# Calls of active or inactive are those of the source. The rule behind the calls is not given here.
# Tests used:
# [1] = target: 5'-AMP-activated protein kinase catalytic subunit alpha-2 (Homo sapiens) (UniProt P54646); experiment: Binding affinity to wild-type human partial length AMPK alpha2 (M1 to E306 residues) expressed in bacterial expression system assessed as residual binding level at 10 uM by Kinomescan method relative to control
# 5'-AMP-activated protein kinase catalytic subunit alpha-2 (Homo sapiens), sequence (P54646 whole entry, looked up, the tested form may be a part): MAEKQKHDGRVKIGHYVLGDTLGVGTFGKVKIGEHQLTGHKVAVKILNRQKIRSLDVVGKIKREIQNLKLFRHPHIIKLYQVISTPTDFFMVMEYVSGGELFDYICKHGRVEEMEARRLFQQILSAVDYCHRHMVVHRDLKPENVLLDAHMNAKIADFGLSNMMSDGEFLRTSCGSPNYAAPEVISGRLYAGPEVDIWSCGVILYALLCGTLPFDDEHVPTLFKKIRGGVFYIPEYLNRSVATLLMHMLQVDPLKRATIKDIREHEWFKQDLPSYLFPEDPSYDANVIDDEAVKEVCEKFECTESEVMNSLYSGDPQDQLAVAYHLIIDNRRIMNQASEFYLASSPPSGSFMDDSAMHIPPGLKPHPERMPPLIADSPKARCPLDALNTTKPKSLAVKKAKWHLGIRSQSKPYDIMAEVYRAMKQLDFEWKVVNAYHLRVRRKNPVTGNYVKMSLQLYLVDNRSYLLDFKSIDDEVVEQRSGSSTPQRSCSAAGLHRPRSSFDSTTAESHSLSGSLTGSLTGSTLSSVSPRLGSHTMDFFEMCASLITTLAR
# [2] = target: Ankyrin repeat and protein kinase domain-containing protein 1 (Homo sapiens) (UniProt Q8NFD2); experiment: Binding affinity to wild-type human partial length ANKK1 (M1 to A305 residues) expressed in mammalian expression system assessed as residual binding level at 10 uM by Kinomescan method relative to control
# [3] = target: Dual specificity protein kinase CLK2 (Homo sapiens) (UniProt P49760); experiment: Binding affinity to wild-type human partial length CLK2 (D144 to R498 residues) expressed in bacterial expression system assessed as residual binding level at 10 uM by Kinomescan method relative to control
# Dual specificity protein kinase CLK2 (Homo sapiens), sequence (P49760 whole entry, looked up, the tested form may be a part): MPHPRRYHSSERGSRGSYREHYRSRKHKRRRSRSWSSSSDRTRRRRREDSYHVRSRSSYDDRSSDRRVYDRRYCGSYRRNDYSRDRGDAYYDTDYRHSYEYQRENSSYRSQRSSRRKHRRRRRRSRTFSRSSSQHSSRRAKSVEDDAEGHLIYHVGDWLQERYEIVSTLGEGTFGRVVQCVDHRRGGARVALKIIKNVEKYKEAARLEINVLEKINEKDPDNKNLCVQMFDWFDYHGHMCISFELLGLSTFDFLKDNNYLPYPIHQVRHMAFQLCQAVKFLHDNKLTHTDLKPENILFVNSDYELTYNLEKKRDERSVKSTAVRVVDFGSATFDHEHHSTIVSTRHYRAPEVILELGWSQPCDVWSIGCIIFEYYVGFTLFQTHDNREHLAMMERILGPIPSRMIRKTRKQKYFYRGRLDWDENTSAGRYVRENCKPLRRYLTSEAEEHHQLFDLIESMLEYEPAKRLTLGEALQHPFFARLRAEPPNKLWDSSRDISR
# [4] = target: Dual specificity protein kinase CLK3 (Homo sapiens) (UniProt P49761); experiment: Binding affinity to wild-type human full length CLK3 (M1 to R490 residues) expressed in bacterial expression system assessed as residual binding level at 10 uM by Kinomescan method relative to control
# Dual specificity protein kinase CLK3 (Homo sapiens), sequence (P49761 whole entry, looked up, the tested form may be a part, canonical isoform): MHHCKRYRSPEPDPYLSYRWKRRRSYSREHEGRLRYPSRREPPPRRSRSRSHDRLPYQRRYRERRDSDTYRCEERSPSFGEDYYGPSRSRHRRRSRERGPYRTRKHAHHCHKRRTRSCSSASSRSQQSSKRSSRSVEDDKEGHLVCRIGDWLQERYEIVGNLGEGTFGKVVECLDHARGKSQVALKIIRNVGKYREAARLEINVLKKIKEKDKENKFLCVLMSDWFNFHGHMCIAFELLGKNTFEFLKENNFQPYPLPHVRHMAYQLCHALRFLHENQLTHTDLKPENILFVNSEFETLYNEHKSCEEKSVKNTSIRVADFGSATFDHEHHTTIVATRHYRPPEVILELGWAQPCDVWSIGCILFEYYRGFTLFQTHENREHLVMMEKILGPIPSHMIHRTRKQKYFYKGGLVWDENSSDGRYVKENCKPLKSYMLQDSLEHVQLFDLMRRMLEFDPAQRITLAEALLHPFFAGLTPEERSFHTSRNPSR
# [5] = target: Casein kinase I isoform epsilon (Homo sapiens) (UniProt P49674); experiment: Binding affinity to wild-type human full length CSNK1E (M1 to K416 residues) expressed in bacterial expression system assessed as residual binding level at 10 uM by Kinomescan method relative to control
# Casein kinase I isoform epsilon (Homo sapiens), sequence (P49674 whole entry, looked up, the tested form may be a part, canonical isoform): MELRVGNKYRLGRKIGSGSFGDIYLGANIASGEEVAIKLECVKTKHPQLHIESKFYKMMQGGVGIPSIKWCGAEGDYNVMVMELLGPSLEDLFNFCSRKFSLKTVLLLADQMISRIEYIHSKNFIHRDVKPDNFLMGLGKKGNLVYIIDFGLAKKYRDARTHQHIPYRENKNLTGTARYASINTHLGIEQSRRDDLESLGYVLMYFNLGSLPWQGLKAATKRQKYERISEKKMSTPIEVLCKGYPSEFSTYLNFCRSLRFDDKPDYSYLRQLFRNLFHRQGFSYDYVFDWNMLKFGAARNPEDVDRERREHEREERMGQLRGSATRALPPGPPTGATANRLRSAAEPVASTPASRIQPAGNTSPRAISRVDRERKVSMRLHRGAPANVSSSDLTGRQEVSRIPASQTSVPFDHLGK
# [6] = target: Discoidin domain-containing receptor 2 (Homo sapiens) (UniProt Q16832); experiment: Binding affinity to wild-type human partial length DDR2 (V555 to E855 residues) expressed in mammalian expression system assessed as residual binding level at 10 uM by Kinomescan method relative to control
# [7] = target: Ephrin type-A receptor 4 (Homo sapiens) (UniProt P54764); experiment: Binding affinity to wild-type human partial length EPHA4 (T601 to R897 residues) expressed in bacterial expression system assessed as residual binding level at 10 uM by Kinomescan method relative to control
# [8] = test system: Receptor-type tyrosine-protein kinase FLT3 (Homo sapiens), P36888 [D835Y]; experiment: Binding affinity to human partial length FLT3 D835Y mutant (Q580 to Y969 residues) expressed in bacterial expression system assessed as residual binding level at 10 uM by Kinomescan method relative to control
# [9] = test system: Mast/stem cell growth factor receptor Kit (Homo sapiens), P10721 [D816H]; experiment: Binding affinity to human partial length KIT D816H mutant (I571 to D952 residues) expressed in mammalian expression system assessed as residual binding level at 10 uM by Kinomescan method relative to control
# [10] = test system: Mast/stem cell growth factor receptor Kit (Homo sapiens), P10721 [V559D]; experiment: Binding affinity to human partial length KIT V559D mutant (Y545 to D952 residues) expressed in bacterial expression system assessed as residual binding level at 10 uM by Kinomescan method relative to control
# [11] = target: Myosin light chain kinase (Homo sapiens) (UniProt Q32MK0); experiment: Binding affinity to wild-type human partial length MLCK (D488 to K800 residues) expressed in bacterial expression system assessed as residual binding level at 10 uM by Kinomescan method relative to control
# [12] = target: Serine/threonine-protein kinase 24 (Homo sapiens) (UniProt Q9Y6E0); experiment: Binding affinity to wild-type human partial length MST3 (A30 to S311 residues) expressed in bacterial expression system assessed as residual binding level at 10 uM by Kinomescan method relative to control
# Serine/threonine-protein kinase 24 (Homo sapiens), sequence (Q9Y6E0 whole entry, looked up, the tested form may be a part): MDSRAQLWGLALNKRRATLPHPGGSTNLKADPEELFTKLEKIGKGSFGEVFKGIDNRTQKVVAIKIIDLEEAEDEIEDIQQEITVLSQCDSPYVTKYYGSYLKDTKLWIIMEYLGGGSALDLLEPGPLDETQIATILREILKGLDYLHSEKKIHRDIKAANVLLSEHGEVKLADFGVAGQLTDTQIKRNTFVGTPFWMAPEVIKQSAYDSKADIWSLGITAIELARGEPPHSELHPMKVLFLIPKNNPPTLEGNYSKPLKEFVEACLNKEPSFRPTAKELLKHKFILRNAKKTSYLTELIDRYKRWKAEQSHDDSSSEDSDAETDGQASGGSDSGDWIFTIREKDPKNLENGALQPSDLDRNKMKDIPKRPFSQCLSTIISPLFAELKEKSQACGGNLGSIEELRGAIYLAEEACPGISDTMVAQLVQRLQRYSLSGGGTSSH
# [13] = target: Myosin light chain kinase 2, skeletal/cardiac muscle (Homo sapiens) (UniProt Q9H1R3); experiment: Binding affinity to wild-type human partial length MYLK2 (D258 to K570 residues) expressed in bacterial expression system assessed as residual binding level at 10 uM by Kinomescan method relative to control
# [14] = target: Serine/threonine-protein kinase 38 (Homo sapiens) (UniProt Q15208); experiment: Binding affinity to wild-type human partial length NDR1 (N33 to E449 residues) expressed in mammalian expression system assessed as residual binding level at 10 uM by Kinomescan method relative to control
# Serine/threonine-protein kinase 38 (Homo sapiens), sequence (Q15208 2-465 limits assumed): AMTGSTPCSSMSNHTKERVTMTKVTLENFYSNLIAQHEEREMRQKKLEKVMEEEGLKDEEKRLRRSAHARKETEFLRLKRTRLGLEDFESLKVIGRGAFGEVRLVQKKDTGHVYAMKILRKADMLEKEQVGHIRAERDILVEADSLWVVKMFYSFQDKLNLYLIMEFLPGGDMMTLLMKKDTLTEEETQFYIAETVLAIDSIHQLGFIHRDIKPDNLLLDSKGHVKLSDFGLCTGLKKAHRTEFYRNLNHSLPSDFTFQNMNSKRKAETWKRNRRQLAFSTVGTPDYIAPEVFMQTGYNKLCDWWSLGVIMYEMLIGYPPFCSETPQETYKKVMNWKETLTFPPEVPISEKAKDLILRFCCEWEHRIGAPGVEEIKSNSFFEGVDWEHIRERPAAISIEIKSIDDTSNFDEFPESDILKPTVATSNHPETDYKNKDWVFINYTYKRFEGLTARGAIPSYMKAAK
# [15] = target: Mitogen-activated protein kinase 13 (Homo sapiens) (UniProt O15264); experiment: Binding affinity to wild-type human full length p38-delta (M1 to L365 residues) expressed in bacterial expression system assessed as residual binding level at 10 uM by Kinomescan method relative to control
# [16] = target: Phosphatidylinositol 4-phosphate 5-kinase type-1 gamma (Homo sapiens) (UniProt O60331); experiment: Binding affinity to wild-type human partial length PIP5K1C (M1 to T668 residues) expressed in mammalian expression system assessed as residual binding level at 10 uM by Kinomescan method relative to control
# [17] = target: Ribosomal protein S6 kinase alpha-2 (Homo sapiens) (UniProt Q15349); experiment: Binding affinity to wild-type human partial length N- terminal RSK3 kinase domain 1 (M1 to Q385 residues) expressed in bacterial expression system assessed as residual binding level at 10 uM by Kinomescan method relative to control
# Ribosomal protein S6 kinase alpha-2 (Homo sapiens), sequence (Q15349 whole entry, the tested form may be a part): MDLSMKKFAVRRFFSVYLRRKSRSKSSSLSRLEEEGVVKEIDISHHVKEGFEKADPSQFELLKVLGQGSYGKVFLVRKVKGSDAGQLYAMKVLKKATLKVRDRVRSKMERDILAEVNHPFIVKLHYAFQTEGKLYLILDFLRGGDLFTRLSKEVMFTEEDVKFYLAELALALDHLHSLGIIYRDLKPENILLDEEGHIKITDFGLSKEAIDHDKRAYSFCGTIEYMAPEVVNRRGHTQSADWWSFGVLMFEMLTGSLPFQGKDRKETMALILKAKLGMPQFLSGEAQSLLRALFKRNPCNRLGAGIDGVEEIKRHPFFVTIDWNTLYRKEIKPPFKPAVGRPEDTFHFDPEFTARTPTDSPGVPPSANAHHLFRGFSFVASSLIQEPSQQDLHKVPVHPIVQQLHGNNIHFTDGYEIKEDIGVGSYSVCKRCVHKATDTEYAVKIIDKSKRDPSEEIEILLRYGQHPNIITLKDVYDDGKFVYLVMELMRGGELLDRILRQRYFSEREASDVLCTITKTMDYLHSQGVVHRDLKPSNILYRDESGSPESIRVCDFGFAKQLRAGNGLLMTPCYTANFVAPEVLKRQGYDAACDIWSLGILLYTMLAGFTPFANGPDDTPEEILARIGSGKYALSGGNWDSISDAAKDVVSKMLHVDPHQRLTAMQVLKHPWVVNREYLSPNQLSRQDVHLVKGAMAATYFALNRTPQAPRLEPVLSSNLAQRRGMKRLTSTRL
# [18] = target: Ribosomal protein S6 kinase alpha-6 (Homo sapiens) (UniProt Q9UK32); experiment: Binding affinity to wild-type human partial length N- terminal RSK4 kinase domain 1 (M1 to E397 residues) expressed in mammalian expression system assessed as residual binding level at 10 uM by Kinomescan method relative to control
# [19] = target: SNF-related serine/threonine-protein kinase (Homo sapiens) (UniProt Q9NRH2); experiment: Binding affinity to wild-type human partial length SNRK (M1 to E339 residues) expressed in mammalian expression system assessed as residual binding level at 10 uM by Kinomescan method relative to control
# [20] = target: Serine/threonine-protein kinase 16 (Homo sapiens) (UniProt O75716); experiment: Binding affinity to wild-type human partial length STK16 (G11 to I305 residues) expressed in bacterial expression system assessed as residual binding level at 10 uM by Kinomescan method relative to control
# Serine/threonine-protein kinase 16 (Homo sapiens), sequence (O75716 whole entry, the tested form may be a part): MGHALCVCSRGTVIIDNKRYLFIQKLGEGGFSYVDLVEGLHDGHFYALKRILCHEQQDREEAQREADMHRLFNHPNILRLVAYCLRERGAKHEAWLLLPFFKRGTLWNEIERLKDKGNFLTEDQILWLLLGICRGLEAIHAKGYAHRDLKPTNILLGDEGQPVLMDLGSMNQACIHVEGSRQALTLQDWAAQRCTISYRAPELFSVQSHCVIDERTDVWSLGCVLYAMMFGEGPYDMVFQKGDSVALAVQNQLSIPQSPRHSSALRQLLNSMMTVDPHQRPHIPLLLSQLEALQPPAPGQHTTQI
# [21] = target: Non-receptor tyrosine-protein kinase TNK1 (Homo sapiens) (UniProt Q13470); experiment: Binding affinity to wild-type human full length TNK1 (M1 to P661 residues) expressed in bacterial expression system assessed as residual binding level at 10 uM by Kinomescan method relative to control
# Non-receptor tyrosine-protein kinase TNK1 (Homo sapiens), sequence (Q13470 whole entry, the tested form may be a part): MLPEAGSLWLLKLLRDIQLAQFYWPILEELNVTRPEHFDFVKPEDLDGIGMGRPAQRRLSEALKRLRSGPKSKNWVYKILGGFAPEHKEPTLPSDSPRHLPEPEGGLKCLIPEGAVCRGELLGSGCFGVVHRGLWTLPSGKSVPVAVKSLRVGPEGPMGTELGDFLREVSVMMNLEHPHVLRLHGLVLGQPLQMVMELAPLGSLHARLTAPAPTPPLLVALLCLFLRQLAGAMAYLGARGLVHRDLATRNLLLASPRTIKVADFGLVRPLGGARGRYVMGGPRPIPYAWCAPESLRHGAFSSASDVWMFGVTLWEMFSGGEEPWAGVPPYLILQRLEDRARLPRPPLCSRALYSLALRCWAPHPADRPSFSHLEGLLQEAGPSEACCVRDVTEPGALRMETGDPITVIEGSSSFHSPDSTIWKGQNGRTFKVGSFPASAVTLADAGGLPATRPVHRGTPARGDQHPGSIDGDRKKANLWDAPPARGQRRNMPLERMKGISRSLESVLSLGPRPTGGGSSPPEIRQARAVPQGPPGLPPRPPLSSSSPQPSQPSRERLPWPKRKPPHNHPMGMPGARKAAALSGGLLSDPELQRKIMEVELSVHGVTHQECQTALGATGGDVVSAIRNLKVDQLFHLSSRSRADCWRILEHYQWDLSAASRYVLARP
# [22] = target: BDNF/NT-3 growth factors receptor (Homo sapiens) (UniProt Q16620); experiment: Binding affinity to wild-type human partial length TRKB (Q547 to G838 residues) expressed in mammalian expression system assessed as residual binding level at 10 uM by Kinomescan method relative to control
# [23] = target: Testis-specific serine/threonine-protein kinase 1 (Homo sapiens) (UniProt Q9BXA7); experiment: Binding affinity to wild-type human full length TSSK1B (M1 to Q367 residues) expressed in bacterial expression system assessed as residual binding level at 10 uM by Kinomescan method relative to control
# Testis-specific serine/threonine-protein kinase 1 (Homo sapiens), sequence (Q9BXA7 whole entry, the tested form may be a part): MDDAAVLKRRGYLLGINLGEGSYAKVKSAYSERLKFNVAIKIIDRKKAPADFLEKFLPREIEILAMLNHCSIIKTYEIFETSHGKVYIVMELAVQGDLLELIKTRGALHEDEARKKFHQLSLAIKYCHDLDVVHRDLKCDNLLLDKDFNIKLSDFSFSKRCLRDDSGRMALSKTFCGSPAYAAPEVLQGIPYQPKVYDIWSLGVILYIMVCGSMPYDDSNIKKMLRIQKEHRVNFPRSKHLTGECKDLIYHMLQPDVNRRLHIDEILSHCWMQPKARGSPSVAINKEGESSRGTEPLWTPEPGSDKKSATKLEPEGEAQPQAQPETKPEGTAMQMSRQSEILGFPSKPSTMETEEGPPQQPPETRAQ
# [24] = test system: Neutrophil; experiment: Inhibition of PMA-induced NETosis in human neutrophils at 25 uM preincubated for 30 mins followed by PMA stimulation and measured after 3 hrs by Hoechst […] staining based fluorescence microscopic analysis; format: functional, cell-based
smiles,measurement,setting,value
CC(C)N1C(=O)C(NCCCN(C)C)=C(c2cn(C)c3ccccc23)C1=O.Cl,Activity,[1],89%
same,Activity,[2],90%
same,Activity,[3],90%
same,Activity,[4],92%
same,Activity,[5],89%
same,Activity,[6],100%
same,Activity,[7],100%
same,Activity,[8],94%
same,Activity,[9],96%
same,Activity,[10],96%
same,Activity,[11],89%
same,Activity,[12],100%
same,Activity,[13],100%
same,Activity,[14],93%
same,Activity,[15],100%
same,Activity,[16],96%
same,Activity,[17],100%
same,Activity,[18],94%
same,Activity,[19],91%
same,Activity,[20],99%
same,Activity,[21],95%
same,Activity,[22],94%
same,Activity,[23],100%
same,inhibition,[24],Active
